The text below walks through data of patent publication US8895538B2, “Combination and composition that contains an antimicrobial, a glucocorticoid and an antimycotic” (Laboratories Senosiain S.A. de C.V., priority 2009, dated 2014).

The conditions of data set [1]: cited from earlier work.
In the next data set the test system is rats. The note with it: administered orally; cited from earlier work.
The next data set concerns mice. The note with it: administered orally; cited from earlier work.
The conditions of data set [2]: in vivo; cited from earlier work.
Data set [3] in a line: Laboratory assays of sensitivity, solubility and stability of the active agents at different pH conditions. Format: physicochemical. As for the experimental part: Laboratory assays were carried out for verifying the sensitivity, solubility and stability of the active agents at different pH conditions. Thus, their stability was tested at different pH conditions. Due to the sensitivity of the active agents, the addition order of these components, as well as the excipient and vehicle selection are of great importance for avoiding degradation or incompatibilities of said active agents.

Regarding `C[C@H]1C[C@H]2[C@@H]3CCC4=CC(=O)C=C[C@]4(C)[C@@]3(F)[C@@H](O)C[C@]2(C)[C@@]1(O)C(=O)CO` [Betametasone], the solubility in water result in data set [1] (water) was “almost insoluble”.

Take `Clc1ccccc1C(c1ccccc1)(c1ccccc1)n1ccnc1` [Clotrimazole]: the LD50 (as a rule, the dose at which mortality reaches 50%) with rats is 708 mg/kg; in the data set on mice, 923 mg/kg. Moreover, the “hydrolysis in acid solution at high temperature” value in data set [1] (acid solution, high temperature) is given as “rapidly hydrolised”. Further, the “absorbed in topical applications” value in data set [2] is 3-10 % of the dose.

Consider `CC(=O)O[C@H]1C[C@@]2(C)[C@@H](C[C@@H](O)[C@H]3[C@@]4(C)CC[C@@H](O)[C@@H](C)[C@@H]4CC[C@@]32C)/C1=C(\CCC=C(C)C)C(=O)O` [Fusidic acid], for which the “stability in the presence of acid substances” value in data set [3] is listed as “greatly reduced”.
